Results on four molecules are retold here after paper PMC6801510, “A2A Receptor Homodimer-Disrupting Sequence Efficiently Delivered by a Protease-Resistant, Cyclic CPP Vector” (International Journal of Molecular Sciences, 2019).

In data set [1] the test system is trypsin. Nature of the data set: Trypsin digestion followed by HPLC. Conditions: trypsin (isolated protease), after 30 min, peptide:trypsin 100:1, peptide 1 µg/µL, 50 mM ammonium bicarbonate buffer pH 8.2, 37 °C, reverse-phase HPLC-MS read-out, assays in duplicate, read-out: Decrease in the area of the starting HPLC peak on trypsin treatment. Type of data set: in vitro ADME. An excerpt:
It was of particular interest to ascertain how the internal cyclization and D-amino acid modifications influenced the lifespan of the partially cyclic structures. To this end, peptides 1 and 2, both with a TM5 disruptor sequence fused to a linear or a cyclic CPP motif, respectively, were inspected by high-performance liquid chromatography (HPLC) upon trypsin treatment. Analysis confirmed the vulnerability of fully linear 1 (Figure 3), with a 90% decrease in the area of the starting peak after only 30 min (Figure 4), and the appearance of new peaks identified by mass spectrometry (MS) (Table 2).
A 1000 µg/1000 µL trypsin solution (Thermo Fisher Scientific, Cornellà de Llobregat, Spain) […]) was prepared by suspending the lyophilized enzyme in 50 mM ammonium bicarbonate buffer, pH 8.2. Peptides dissolved in the same buffer (1 µg/µL) were incubated with trypsin (peptide:trypsin ratio = 100:1) for 24 h at 37 °C. Samples were collected at various time points and digestion was stopped by addition of 20% (v/v) of 0.5% formic acid in H2O. Samples were stored at −20 °C until analyzed by reverse-phase HPLC-MS.

Data set [2] deals with T1, A2AR homodimer (A2A-cYFP / A2A-nYFP) in HEK-293T cells (Homo sapiens, UniProt P29274).
T1 construct: expressed in transfected cells; host or cells: HEK-293T
T1 sequence (P29274 whole entry): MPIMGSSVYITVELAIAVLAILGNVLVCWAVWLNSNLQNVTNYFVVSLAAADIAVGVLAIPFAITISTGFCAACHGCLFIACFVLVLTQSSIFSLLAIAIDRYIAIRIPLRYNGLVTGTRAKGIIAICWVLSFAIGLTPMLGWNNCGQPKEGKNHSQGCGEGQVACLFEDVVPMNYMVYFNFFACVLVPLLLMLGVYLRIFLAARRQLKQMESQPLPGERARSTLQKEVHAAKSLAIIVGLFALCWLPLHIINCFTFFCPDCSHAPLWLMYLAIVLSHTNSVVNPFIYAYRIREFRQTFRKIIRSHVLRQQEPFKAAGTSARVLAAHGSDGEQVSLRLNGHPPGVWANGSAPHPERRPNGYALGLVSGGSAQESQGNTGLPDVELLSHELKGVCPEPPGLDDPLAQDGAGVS
Nature of the data set: Bimolecular fluorescence complementation (BiFC) assay of A2A receptor homodimer disruption. Type of data set: cell-based. The following applies: 4 h incubation with peptide; for Effect on the control BiFC fluorescence (A2AR dimerization): HEK-293T cells, A2A-cYFP / A2A-nYFP, versus fluorescence of the dimer in the absence of peptides.
Procedure: For bimolecular fluorescence complementation (BiFC) assays: cells were transfected using cDNAs coding for two versions of the receptor. As described elsewhere [18, 27], two cDNAs were prepared: each encoding the receptor fused to one of the two halves of the super yellow fluorescent protein (sYFP). […] Each half of the fluorescent protein is unable, by itself, to emit fluorescence, which is only feasible after complementation of the two halves of the sYFP.
To address homodimer disruption, bimolecular fluorescence complementation assays were performed using HEK-293T cells transfected with equal amounts of cDNAs (0.75 µg cDNA each) for A2A-cYFP and A2A-nYFP fusion proteins (intramural production, see [17, 18, 26, 28]). […] Fluorescence was recorded in a Fluostar Optima fluorimeter (BMG Labtechnologies, Offenburg, Germany). […] Values of fluorescence obtained in the absence or presence of peptides are given as mean ± standard error of the mean (SEM) of 16 independent experiments in duplicates.

Data set [3] addresses T2, adenosine A2A receptor, fused to one half of super yellow fluorescent protein (A2A-cYFP or A2A-nYFP), BiFC … (UniProt P29274 1-412).
T2 construct: source: HEK-293T, transfected, in living cells
Nature of the data set: split reporter (BiFC, NanoBiT); competition: HEK-293T cells expressing A2A-cYFP and A2A-nYFP treated with TM5 peptides 1 or 2 for 4 h before the complementation assay, in supplemented DMEM; dose-dependent loss of YFP fluorescence. The following applies: one partner purified.

Ends that are not written are not given here.

T2 sequence (P29274 whole entry, the tested form may be a part): as the sequence (P29274 whole entry) above

For “MNYMVYFNFFACVLVPLLLMLGVYLYGRKKRRQRRR-NH2 [Peptide 1]”, in data set [1], the metabolised at 0.5 h, 1 µg/µL was 90%. Besides, the “Effect on the control BiFC fluorescence (A2AR dimerization)” value in data set [2] is recorded as “affected the fluorescence of the control in a dose-dependent manner”.
“MNYMVYFNFFACVLVPLLLMLGVYL[KrRrGrKkRrE]-amide (sidechain bridge or staple) [Peptide 2, Cyclic Tat-like TM5: A2AR TM5 fused to cyclic KrRrGrKkRrE motif, N-terminus acetylated]”: the IC50 (commonly the midpoint of a concentration-inhibition curve) in data set [2] (HEK-293T cells transfected with A2A-cYFP and A2A-nYFP, 48 h post-transfection, supplemented DMEM, Figure 2B, mean +/- SD, n = 12 in duplicates, read-out: IC50 for reduction of BiFC (sYFP complementation) fluorescence of the A2AR homodimer) amounted to 350 nM. In addition, the “Effect on the control BiFC fluorescence (A2AR dimerization)” value in data set [2] is on record as “affected the fluorescence of the control in a dose-dependent manner”.

B1: Peptide 1, linear Tat-based TM5 (peptide)
peptide: MNYMVYFNFFACVLVPLLLMLGVYLYGRKKRRQRRR-NH2
notes: TM5 helical domain of the adenosine A2A receptor (A2AR); also called linear TM5-Tat; linear peptide 1; source: synthetic peptide (Fmoc solid-phase synthesis, purified by preparative HPLC)
On to B1, for which the IC50 in data set [3] came out at 520 nM.

B2: Peptide 2, cyclic Tat-like TM5 (peptide)
peptide: MNYMVYFNFFACVLVPLLLMLGVYLKRRRGRKKRRE
modifications: also: cyclic (mode of cyclisation not given here)
notes: also called TM5-cyclic Tat-like; cyclic version 2; source: synthetic peptide (Fmoc solid-phase synthesis, on-resin cyclization, purified by preparative HPLC)
B2: the IC50 in data set [3] came to 350 nM.
